# Laboratory results reported in PMC11470957, “Principles of paralog-specific targeted protein degradation engaging the C-degron E3 KLHDC2” (Nature Communications, 2024).
# Like-named read-outs stand apart in the source and are kept apart here.
# Target: BRD2 (Homo sapiens, UniProt P25440)
# Assay: Western blot of BRD2 levels after cellular dosing
# Conditions: for remaining activity at 2.19382 µM: Log SJ46420 (uM) 2.19382; for remaining activity at 2.79588 µM: Log SJ46420 (uM) 2.79588; for remaining activity at 3.09691 µM: Log SJ46420 (uM) 3.09691; for remaining activity at 3.39794 µM: Log SJ46420 (uM) 3.39794; for remaining activity at 3.69897 µM: Log SJ46420 (uM) 3.69897; for remaining activity at 4 µM: Log SJ46420 (uM) 4
# [1] = 22Rv1, read-out: BRD2 (DMSO = 100), 22Rv1 cells, Rep1, Rep2
# [2] = PC-3, read-out: BRD2 (DMSO = 100), PC3 cells, Rep1, Rep2
# Sequence of BRD2 (P25440 whole entry): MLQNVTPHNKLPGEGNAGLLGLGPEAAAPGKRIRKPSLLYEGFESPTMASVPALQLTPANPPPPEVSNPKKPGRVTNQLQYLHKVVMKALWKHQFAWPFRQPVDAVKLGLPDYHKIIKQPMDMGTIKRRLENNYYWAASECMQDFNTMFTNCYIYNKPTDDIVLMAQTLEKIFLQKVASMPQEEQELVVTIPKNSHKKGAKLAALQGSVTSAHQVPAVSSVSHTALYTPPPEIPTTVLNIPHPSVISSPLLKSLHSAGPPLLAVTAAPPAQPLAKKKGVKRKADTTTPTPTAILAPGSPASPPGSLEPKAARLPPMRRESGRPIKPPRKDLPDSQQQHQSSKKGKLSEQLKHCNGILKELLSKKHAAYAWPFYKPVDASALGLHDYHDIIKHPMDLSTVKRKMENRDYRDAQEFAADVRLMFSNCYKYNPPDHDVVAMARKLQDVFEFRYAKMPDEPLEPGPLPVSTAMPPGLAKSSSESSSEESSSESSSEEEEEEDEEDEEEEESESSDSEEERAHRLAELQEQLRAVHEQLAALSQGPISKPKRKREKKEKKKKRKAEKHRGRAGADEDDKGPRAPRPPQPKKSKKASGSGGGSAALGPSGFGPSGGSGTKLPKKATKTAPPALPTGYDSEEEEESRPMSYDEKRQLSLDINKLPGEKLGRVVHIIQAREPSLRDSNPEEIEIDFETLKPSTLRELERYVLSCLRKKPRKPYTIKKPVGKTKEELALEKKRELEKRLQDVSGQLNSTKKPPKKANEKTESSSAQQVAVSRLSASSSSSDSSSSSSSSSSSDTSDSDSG
smiles,measurement,setting,value
COC(=O)CNC(=O)Cc1csc(-c2ccc3cccc(OCCN4CCN(C(=O)C[C@@H]5N=C(c6ccc(Cl)cc6)c6c(sc(C)c6C)-n6c(C)nnc65)CC4)c3c2)n1 [SJ46420],remaining activity at 0.16 µM,"22Rv1, 24 h, read-out: BRD2 level relative to DMSO (100%), 22Rv1, 0.16µM, 24 h, Fig S6f",99 ± 7.4%
same,remaining activity at 0.31 µM,"22Rv1, 24 h, read-out: BRD2 level relative to DMSO (100%), 22Rv1, 0.31µM, 24 h, Fig S6f",92 ± 16%
same,remaining activity at 0.63 µM,"22Rv1, 24 h, read-out: BRD2 level relative to DMSO (100%), 22Rv1, 0.63µM, 24 h, Fig S6f",93 ± 8.7%
same,remaining activity at 1.3 µM,"22Rv1, 24 h, read-out: BRD2 level relative to DMSO (100%), 22Rv1, 1.3µM, 24 h, Fig S6f",88 ± 1.3%
same,remaining activity at 2.5 µM,"22Rv1, 24 h, read-out: BRD2 level relative to DMSO (100%), 22Rv1, 2.5µM, 24 h, Fig S6f",83 ± 5.5%
same,remaining activity at 5 µM,"22Rv1, 24 h, read-out: BRD2 level relative to DMSO (100%), 22Rv1, 5µM, 24 h, Fig S6f",87 ± 7.4%
same,remaining activity at 10 µM,"22Rv1, 24 h, read-out: BRD2 level relative to DMSO (100%), 22Rv1, 10µM, 24 h, Fig S6f",92 ± 5.6%
same,remaining activity at 2.19382 µM,[1],94.2%
same,remaining activity at 2.79588 µM,[1],98.7%
same,remaining activity at 3.09691 µM,[1],88.1%
same,remaining activity at 3.39794 µM,[1],87.2%
same,remaining activity at 3.69897 µM,[1],92.7%
same,remaining activity at 4 µM,[1],96.3%
same,Dmax,"22Rv1, read-out: BRD2 Dmax, 22Rv1, 24 h dose",0%
same,remaining activity at 0.156 µM,"22Rv1, read-out: BRD2 level, Western blot quantification (DMSO = 100), Fig S6f, 22RV1 KO/rescue Dose Response, 0.156 uM",94.2%
same,remaining activity at 0.625 µM,"22Rv1, read-out: BRD2 level, Western blot quantification (DMSO = 100), Fig S6f, 22RV1 KO/rescue Dose Response, 0.625 uM",98.7%
same,remaining activity at 1.25 µM,"22Rv1, read-out: BRD2 level, Western blot quantification (DMSO = 100), Fig S6f, 22RV1 KO/rescue Dose Response, 1.25 uM",88.1%
same,remaining activity at 2.5 µM,"22Rv1, read-out: BRD2 level, Western blot quantification (DMSO = 100), Fig S6f, 22RV1 KO/rescue Dose Response, 2.5 uM",87.2%
same,remaining activity at 5 µM,"22Rv1, read-out: BRD2 level, Western blot quantification (DMSO = 100), Fig S6f, 22RV1 KO/rescue Dose Response, 5 uM",92.7%
same,remaining activity at 10 µM,"22Rv1, read-out: BRD2 level, Western blot quantification (DMSO = 100), Fig S6f, 22RV1 KO/rescue Dose Response, 10uM",96.3%
same,remaining activity at 0.16 µM,"24 h, read-out: BRD2 level relative to DMSO (100%), PC3, 0.16µM, 24 h, Fig S6e",90 ± 11%
same,remaining activity at 0.31 µM,"24 h, read-out: BRD2 level relative to DMSO (100%), PC3, 0.31µM, 24 h, Fig S6e",98 ± 2.9%
same,remaining activity at 0.63 µM,"24 h, read-out: BRD2 level relative to DMSO (100%), PC3, 0.63µM, 24 h, Fig S6e",83 ± 3.4%
same,remaining activity at 1.3 µM,"24 h, read-out: BRD2 level relative to DMSO (100%), PC3, 1.3µM, 24 h, Fig S6e",89 ± 5.6%
same,remaining activity at 2.5 µM,"24 h, read-out: BRD2 level relative to DMSO (100%), PC3, 2.5µM, 24 h, Fig S6e",92 ± 9.1%
same,remaining activity at 5 µM,"24 h, read-out: BRD2 level relative to DMSO (100%), PC3, 5µM, 24 h, Fig S6e",91 ± 7.6%
same,remaining activity at 10 µM,"24 h, read-out: BRD2 level relative to DMSO (100%), PC3, 10µM, 24 h, Fig S6e",88 ± 9.1%
same,remaining activity at 0.2 µM,"AU565, 8 h, read-out: BRD2 level relative to DMSO (100%), AU565, 0.2µM, 8 h, Fig S6c",93 ± 3.1%
same,remaining activity at 1 µM,"AU565, 8 h, read-out: BRD2 level relative to DMSO (100%), AU565, 1µM, 8 h, Fig S6c",96 ± 6.2%
same,remaining activity at 5 µM,"AU565, 8 h, read-out: BRD2 level relative to DMSO (100%), AU565, 5µM, 8 h, Fig S6c",90 ± 5.1%
same,remaining activity at 0.2 µM,"AU565, read-out: BRD2 level, Western blot quantification (DMSO = 100), Fig S6c, AU565 Cells, 0.2 uM",91.6%
same,remaining activity at 1 µM,"AU565, read-out: BRD2 level, Western blot quantification (DMSO = 100), Fig S6c, AU565 Cells, 1 uM",101%
same,remaining activity at 5 µM,"AU565, read-out: BRD2 level, Western blot quantification (DMSO = 100), Fig S6c, AU565 Cells, 5 uM",87%
same,remaining activity at 2.5 µM,"HEK-293T, 24 h, read-out: BRD2 level relative to DMSO (100%), 293T, 2.5µM, 24 h, Fig S6a",89 ± 9.5%
same,remaining activity at 5 µM,"HEK-293T, 24 h, read-out: BRD2 level relative to DMSO (100%), 293T, 5µM, 24 h, Fig S6a",92 ± 2.5%
same,remaining activity at 2.5 µM,"HEK-293T, read-out: BRD2 level, Western blot quantification (DMSO = 100), Fig S6a, 293T cells, 2.5 uM",82%
same,remaining activity at 5 µM,"HEK-293T, read-out: BRD2 level, Western blot quantification (DMSO = 100), Fig S6a, 293T cells, 5 uM",91.4%
same,remaining activity at 2.5 µM,"MDA-MB-468, 24 h, read-out: BRD2 level relative to DMSO (100%), MDA-MB-468, 2.5µM, 24 h, Fig S6b",79 ± 8.9%
same,remaining activity at 5 µM,"MDA-MB-468, 24 h, read-out: BRD2 level relative to DMSO (100%), MDA-MB-468, 5µM, 24 h, Fig S6b",89 ± 3.9%
same,remaining activity at 10 µM,"MDA-MB-468, 24 h, read-out: BRD2 level relative to DMSO (100%), MDA-MB-468, 10µM, 24 h, Fig S6b",91 ± 3.1%
same,remaining activity at 2 µM,"MDA-MB-468, read-out: BRD2 level, Western blot quantification (DMSO = 100), Fig S6b, MDA-MB468 Cells, 2 uM",73.4%
same,remaining activity at 5 µM,"MDA-MB-468, read-out: BRD2 level, Western blot quantification (DMSO = 100), Fig S6b, MDA-MB468 Cells, 5 uM",86.5%
same,remaining activity at 10 µM,"MDA-MB-468, read-out: BRD2 level, Western blot quantification (DMSO = 100), Fig S6b, MDA-MB468 Cells, 10 uM",89.6%
same,remaining activity at 1.89279 µM,"PC-3, read-out: BRD2 (DMSO = 100), PC3 cells, Log SJ46420 (uM) 1.89279, Rep1, Rep2",89%
same,remaining activity at 2.19382 µM,[2],83.3%
same,remaining activity at 2.49485 µM,"PC-3, read-out: BRD2 (DMSO = 100), PC3 cells, Log SJ46420 (uM) 2.49485, Rep1, Rep2",100%
same,remaining activity at 2.79588 µM,[2],81.2%
same,remaining activity at 3.09691 µM,[2],85.7%
same,remaining activity at 3.39794 µM,[2],86.6%
same,remaining activity at 3.69897 µM,[2],86.5%
same,remaining activity at 4 µM,[2],81.6%
same,remaining activity at 1 µM,"SK-BR-3, 2 h, read-out: BRD2 level relative to DMSO (100%), SKBR3, 1µM, 2hr, Fig S6g",71 ± 3.9%
same,remaining activity at 5 µM,"SK-BR-3, 2 h, read-out: BRD2 level relative to DMSO (100%), SKBR3, 5µM, 2hr, Fig S6g",69 ± 10%
same,remaining activity at 1 µM,"SK-BR-3, 2 h, read-out: BRD2 level, Western blot quantification (DMSO = 100), Fig S6g, SKBR3 Time course, 1 uM, 2hr",67.4%
same,remaining activity at 5 µM,"SK-BR-3, 2 h, read-out: BRD2 level, Western blot quantification (DMSO = 100), Fig S6g, SKBR3 Time course, 5 uM, 2hr",61.5%
same,remaining activity at 1 µM,"SK-BR-3, 4 h, read-out: BRD2 level relative to DMSO (100%), SKBR3, 1µM, 4hr, Fig S6g",82 ± 4%
